Measurements: patent publication US12098193B2, “Netrin G1 as a biomarker for enhancing tumor treatment efficacy” (Institute For Cancer Research, priority 2017, dated 2024)
Peptide text beside a SMILES is read from it. * marks the point of attachment. Cbz = O=C(OCc1ccccc1)*; CH2F = FC*

Assays:
Format in all cases: cell-based
[1] = test system: PDAC cells; assay: NK cell killing assay in 3D (CAF ECM); conditions: added to NetG1 knockout CAFs; FIG. 11 panel D
Description: Knockout of NetG1 in CAFs reduced immunosuppressive cytokine secretion, and CAFs protected PDAC from NK cell induced death in a NetG1/NGL1-dependent manner. Referring to FIG. 11 (panel A), a panel of immunosuppressive and pro-tumor cytokines (GM-CSF, IL-1Beta, CCL20, IL-6, IL-8, TGF-beta) and NK stimulating cytokine (IL-15) was performed. Knockout of NetG1 in CAFs produced less of all cytokines tested, but still produced significant levels of the anti-tumor NK cell cytokine IL-15. Referring to FIG. 11 (panel B), an assay was performed with Granzyme B and IFN-g production in NK cells stimulated with IL-2+IFN-γ (positive controls) or in co-culture conditions with conditioned media or direct contact with CAFs (CON vs knockout of NetG1). Knockout of NetG1 in CAF media or direct contact partially activated NK cells. Referring to FIG. 11 (panel C), an NK cell killing assay in 3D (CAF ECM) was carried out. Knockout of NetG1 in CAFs allowed NK cells to kill PDAC, while CON CAFs protected PDAC.

[2] = test system: PDAC cells; assay: PDAC survival in stressful culture conditions (serum free, glutamine free) with CAFs; conditions: FIG. 7
Description: Referring to FIG. 7 (panel B), extracellular matrix produced by NetG1 knockout CAFs is less supportive to PDAC survival. Referring to FIG. 7 (panel C), knockout of NetG1 in CAFs produced less glutamate and glutamine. Referring to FIG. 7 (panel D), knockout of NetG1 in CAFs and knockout of NGL1 in PDAC expressed less glutamine/glutamate related proteins.

[3] = test system: PDAC cells; assay: cell death quantification of PDAC (CON or NGL1 knockout) cultured alone or co-cultured with CAFs in 3D under stressful conditions; conditions: stressful 3D culture (FIG. 9)
Description: NGL1 expression in PDAC determined the mode of cell death under stressful co-culture conditions with CAFs. Referring to FIG. 9 (panel A), cell death quantification of PDAC (CON or knockout) cultured alone in 3D was carried out. Referring to FIG. 9 (panel B), cell death quantification of PDAC (CON or knockout) co-cultured with CAFs (CON or knockout) in 3D was also carried out. […] Also, knockout of NetG1 I CAFs drove PDAC to higher amounts of death across all conditions.

SMILES	protection of PDAC from NK cell-induced death [1]	PDAC survival after adding back to the stressful culture conditions [2]	mode of cell death of NGL1+ PDAC under caspase inhibition ([3]; NGL1+ PDAC)	cell death of NGL- PDAC under caspase inhibition ([3]; NGL1 knockout PDAC)
N[C@@H](CCC(=O)O)C(=O)O [glutamate]	partially restored protection	partially rescued PDAC survival		
NC(=O)CC[C@H](N)C(=O)O [glutamine]		partially rescued PDAC survival		
CC(NC(=O)C(NC(=O)OCc1ccccc1)C(C)C)C(=O)NC(CC(=O)O)C(=O)CF (stereo not drawn) [zvad] (Cbz-Val-Ala-Asp-CH2F; configuration not given here)			driven to necroptotic death	protected from death
